Experimental data published in publication doi:10.1101/2022.06.29.498187v1 (bioRxiv, 2022).

Tests used:
human GHSR1a [1] = target: T1, human GHSR1a (Homo sapiens, UniProt Q92847); test: NanoBiT-based homogenous binding assay; conditions: ghrelin-SmBiT and LEAP2-SmBiT tracers
human GHSR1a [2] = target: T1, human GHSR1a; test: Receptor activation assay, CRE-controlled NanoLuc reporter; type: cell-based

T1 sequence (Q92847 whole entry): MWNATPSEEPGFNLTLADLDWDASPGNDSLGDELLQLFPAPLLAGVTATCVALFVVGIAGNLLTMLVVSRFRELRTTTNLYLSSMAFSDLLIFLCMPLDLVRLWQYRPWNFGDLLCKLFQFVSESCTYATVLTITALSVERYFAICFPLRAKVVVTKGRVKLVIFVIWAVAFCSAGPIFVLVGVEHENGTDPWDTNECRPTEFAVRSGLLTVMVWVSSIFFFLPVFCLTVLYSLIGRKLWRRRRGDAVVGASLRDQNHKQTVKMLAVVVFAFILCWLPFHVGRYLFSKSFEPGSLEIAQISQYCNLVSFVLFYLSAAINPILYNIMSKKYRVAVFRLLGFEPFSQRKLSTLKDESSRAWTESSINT

fold lower receptor binding activity compared to native human ghrelin (human GHSR1a [1]): ~15 fold
fold lower receptor activation potency compared to native human ghrelin (human GHSR1a [2]): ~7 fold
SMILES: CCCCCSC[C@H](NC(=O)[C@H](CO)NC(=O)CN)C(=O)N[C@@H](Cc1ccccc1)C(=O)N[C@@H](CC(C)C)C(=O)N[C@@H](CO)C(=O)N1CCC[C@H]1C(=O)N[C@@H](CCC(=O)O)C(=O)N[C@@H](Cc1c[nH]cn1)C(=O)N[C@@H](CCC(N)=O)C(=O)N[C@@H](CCCNC(=N)N)C(=O)N[C@H](C(=O)N[C@@H](CCC(N)=O)C(=O)N[C@@H](CCC(N)=O)C(=O)N[C@@H](CCCNC(=N)N)C(=O)N[C@@H](CCCCN)C(=O)N[C@@H](CCC(=O)O)C(=O)N[C@@H](CO)C(=O)N[C@@H](CCCCN)C(=O)N[C@@H](CCCCN)C(=O)N1CCC[C@H]1C(=O)N1CCC[C@H]1C(=O)N[C@@H](C)C(=O)N[C@@H](CCCCN)C(=O)N[C@@H](CC(C)C)C(=O)N[C@@H](CCC(N)=O)C(=O)N1CCC[C@H]1C(=O)N[C@@H](CCCNC(=N)N)C(=O)O)C(C)C [analog 1]
